# According to US20220073496A1, “NOVEL QUINOLINE DERIVATIVE INHIBITOR” (Nanjing Transthera Biosciences Co., Ltd., priority 2018, published 2022):
# Key:
# [1] = molecular target: T1, pCSF1R in CSF1R plasmid-transfected HEK293T cells (Homo sapiens, UniProt P07333); experiment: Inhibitory activity on the cell pCSF1R (Western Blot); format: cell-based; details: compound 30, 100, 300, 1000 nM, 120 minutes
# T1 construct: expressed in transfected cells; host or cells: HEK293T
# Description: Assay 7: Test for Inhibitory Activities of the Compounds of the Present Invention on the Cell pCSF1R
# HEK293T is a human renal epithelial cell.
# (§1) Test substances: the compounds of the present invention, wherein the structures thereof were as described above.
# Test equipment: protein electrophoresis apparatus (manufactured by Bio Rad), transfer unit (manufactured by Bio Rad), exposure unit (manufactured by Tanon), CO2 cell incubator (manufactured by Thermo).
# The BEK293T cells were inoculated in a 6-well plate (containing 10% FBS DMEM medium, 4×10^5 cells per well), and adherent cells were cultivated at 37° C. in a 5% CO2 condition for 6 hours. Each well was transfected with 2 μg CSF1R plasmid, and the cells were cultivated at 37° C. in a 5% CO2 condition overnight. At 24 hours after transfection, different concentrations of compounds were added to the administration group. The final compound concentrations were 30, 100, 300, and 1000 nM, and the final DMSO content was 1‰. The negative control wells contained the medium containing 1‰ DMSO. […] The inhibitory activity of the compound on the cell pCSF1R was examined.
# Ba/F3 ETV6-NTRK2 cells = molecular target: T2, Ba/F3 ETV6-NTRK2 cells (Homo sapiens, UniProt Q16620); experiment: Cell viability test (CTG), Ba/F3 ETV6-NTRK2; format: cell-based; details: NTRK2 wild type cell, 72 hours, read-out: IC50 Ba/F3 ETV6-NTRK2
# T2 construct: fused on or other part: P41212 (Transcription factor ETV6)
# T2 sequence (Q16620 whole entry, change not shown, the tested form may be a part): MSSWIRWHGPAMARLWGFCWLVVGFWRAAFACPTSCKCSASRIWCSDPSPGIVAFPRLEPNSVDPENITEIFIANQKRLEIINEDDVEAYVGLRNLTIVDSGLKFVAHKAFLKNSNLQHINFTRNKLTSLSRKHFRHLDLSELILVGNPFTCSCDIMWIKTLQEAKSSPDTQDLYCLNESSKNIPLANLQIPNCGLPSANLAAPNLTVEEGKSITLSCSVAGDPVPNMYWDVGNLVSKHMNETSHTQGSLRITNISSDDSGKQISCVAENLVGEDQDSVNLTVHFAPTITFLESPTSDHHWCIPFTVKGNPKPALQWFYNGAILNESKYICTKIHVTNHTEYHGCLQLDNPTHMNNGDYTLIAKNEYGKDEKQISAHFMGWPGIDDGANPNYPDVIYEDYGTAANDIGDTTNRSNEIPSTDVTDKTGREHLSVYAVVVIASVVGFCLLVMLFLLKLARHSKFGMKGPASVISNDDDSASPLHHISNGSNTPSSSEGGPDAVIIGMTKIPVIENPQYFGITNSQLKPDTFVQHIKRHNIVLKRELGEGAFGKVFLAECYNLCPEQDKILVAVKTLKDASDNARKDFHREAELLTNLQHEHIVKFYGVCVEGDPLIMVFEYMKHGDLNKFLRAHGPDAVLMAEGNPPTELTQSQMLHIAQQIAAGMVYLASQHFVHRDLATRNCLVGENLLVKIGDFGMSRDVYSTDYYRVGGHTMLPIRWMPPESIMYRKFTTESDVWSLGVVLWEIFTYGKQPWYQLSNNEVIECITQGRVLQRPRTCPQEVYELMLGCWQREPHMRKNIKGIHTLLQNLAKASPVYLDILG
# Description: (§2) Assay 8: Cell viability test of the compounds of the present invention
# Ba/F3 ETV6-NTRK2 is an NTRK 2 wild type cell;
# as §1
# (§3) Test instrument: SpectraMax multi-label microplate reader.
# (§4) Each cell was inoculated in a 96-well plate and adherent cells were cultivated overnight. Different concentrations of the compounds (9 dose groups, 3.16 times DMSO serial dilution) were added to give the final concentration of 0.1-1000 nM, and the final DMSO content was 1‰. The negative control wells contained the medium containing 1‰ DMSO. The cells were incubated at 37° C. in a condition of 5% CO2 and 95% humidity for 72 hours for use. An equal volume of CTG reagent was added to each well, and the cells were lysed by shaking for 5 minutes on an orbital shaker, and incubated for 20 minutes at room temperature to stabilize the cold light signal. The cold light signal was read with a microplate reader. Data were analyzed using GraphPad Prism 5.0 software, and data were fitted using nonlinear S-curve regression to derive a dose-response curve and thereby calculate IC50 values.
# TrkA (h) = molecular target: T3, TrkA (h) (Homo sapiens, UniProt P04629); experiment: Enzymatic activity test, TrkA (h); format: biochemical; details: 10 μM [γ-33P]-ATP, 40 minutes, room temperature
# T3 construct: purchased
# T3 sequence (P04629 33-796): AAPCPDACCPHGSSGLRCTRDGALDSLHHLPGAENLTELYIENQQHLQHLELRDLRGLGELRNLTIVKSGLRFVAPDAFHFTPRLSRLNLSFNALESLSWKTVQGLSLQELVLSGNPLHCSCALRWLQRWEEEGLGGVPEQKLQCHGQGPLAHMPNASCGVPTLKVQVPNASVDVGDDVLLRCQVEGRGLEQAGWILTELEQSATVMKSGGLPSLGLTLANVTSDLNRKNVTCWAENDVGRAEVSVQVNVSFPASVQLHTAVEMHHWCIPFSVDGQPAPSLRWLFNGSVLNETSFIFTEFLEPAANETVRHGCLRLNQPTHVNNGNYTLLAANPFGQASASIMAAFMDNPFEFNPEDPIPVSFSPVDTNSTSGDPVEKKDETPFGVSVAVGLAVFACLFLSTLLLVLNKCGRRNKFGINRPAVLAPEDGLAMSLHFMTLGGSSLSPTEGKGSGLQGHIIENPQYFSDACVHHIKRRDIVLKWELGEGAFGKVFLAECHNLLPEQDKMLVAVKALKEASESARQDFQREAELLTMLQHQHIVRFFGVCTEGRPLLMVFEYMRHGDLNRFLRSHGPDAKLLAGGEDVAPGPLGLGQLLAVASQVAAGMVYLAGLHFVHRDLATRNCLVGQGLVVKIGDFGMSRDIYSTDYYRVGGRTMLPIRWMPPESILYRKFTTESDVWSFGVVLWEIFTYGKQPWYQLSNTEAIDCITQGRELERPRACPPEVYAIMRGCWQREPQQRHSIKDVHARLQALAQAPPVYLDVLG
# Description: Assay 4: Enzymatic Activity Test of the Compound of the Present Invention
# Test substances: the compounds of the present invention, wherein the structures and preparations thereof were as described above.
# Preparation of the Compound Stock Solution
# The compound was dissolved in 100% DMSO to prepare a stock solution with a maximum concentration of 500 μM.
# Preparation of the Compound Working Solution
# The compound stock solution was diluted to final concentrations of 500, 150, 50, 15. 5, 1.5, 0.5, 0.15 and 0.05 μM to become the compound working solutions (50×).
# Preparation of Different Enzyme Reaction Solutions
# The TrkA (h) enzyme was dissolved in 8 mM MOPS (pH 7.0), 0.2 mM EDTA, and 250 μM KKKSPGEYVNIEFG to prepare an enzyme solution having a final concentration of 1.7 nM. The enzymatic reaction was activated by using 10 mM magnesium acetate and 10 μM [γ-^33P]-ATP to form an Mg/ATP mixed solution.
# In a 384-well plate, the compound working solution was added to final concentrations of 10000, 3000, 1000, 300, 100, 30, 10, 3, and 1 nM. Then different enzyme reaction solutions prepared according to the above conditions were added. The incubation was carried out for 40 minutes at room temperature. The test was terminated by the addition of a 0.5% phosphoric acid solution. 10 μL of the reaction solution was taken and dropped to the P30 filter paper. The filter paper was washed 4 times with 0.425% phosphoric acid solution and once with methanol, and then placed on a scintillation counter. The […] IC50 values were calculated using GraphPad 5.0 software.
# [2] = molecular target: T4, Ba/F3 LMNA-NTRK1-V573M cells (Homo sapiens, UniProt P04629, V573M, cells depend on it); experiment: Cell viability test (CTG), Ba/F3 LMNA-NTRK1-V573M; format: cell-based; details: NTRK1 gene mutant cell, 72 hours, read-out: IC50 Ba/F3 LMNA-NTRK1-V573M
# T4 construct: Ba/F3 LMNA-NTRK1 G667C and Ba/F3 LMNA-NTRK1-V573M are NTRK1 gene mutant cells; fused on or other part: P02545 (Prelamin-A/C)
# T4 sequence (P04629 whole entry V573M, the tested form may be a part): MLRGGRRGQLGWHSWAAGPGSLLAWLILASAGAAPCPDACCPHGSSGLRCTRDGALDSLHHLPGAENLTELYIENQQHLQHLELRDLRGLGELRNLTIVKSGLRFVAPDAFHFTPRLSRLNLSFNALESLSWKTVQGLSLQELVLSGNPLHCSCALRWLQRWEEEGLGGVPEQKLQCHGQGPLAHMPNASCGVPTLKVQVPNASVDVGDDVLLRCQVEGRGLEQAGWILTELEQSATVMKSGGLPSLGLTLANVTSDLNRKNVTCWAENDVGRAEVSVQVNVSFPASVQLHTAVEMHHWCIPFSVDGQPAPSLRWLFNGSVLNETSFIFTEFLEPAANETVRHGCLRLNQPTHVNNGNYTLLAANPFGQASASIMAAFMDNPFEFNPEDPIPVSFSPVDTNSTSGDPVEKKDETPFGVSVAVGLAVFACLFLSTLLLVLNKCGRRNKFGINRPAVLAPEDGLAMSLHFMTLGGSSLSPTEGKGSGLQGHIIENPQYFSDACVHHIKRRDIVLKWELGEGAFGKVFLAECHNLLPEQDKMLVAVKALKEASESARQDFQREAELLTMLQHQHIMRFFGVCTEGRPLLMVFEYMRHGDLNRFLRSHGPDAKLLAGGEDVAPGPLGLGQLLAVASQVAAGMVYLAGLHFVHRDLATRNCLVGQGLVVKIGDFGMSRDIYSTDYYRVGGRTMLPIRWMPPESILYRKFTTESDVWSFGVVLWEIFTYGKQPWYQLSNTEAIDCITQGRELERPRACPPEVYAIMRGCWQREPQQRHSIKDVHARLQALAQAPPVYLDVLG
# Description: as §2
# Ba/F3 LMNA-NTRK1 G667C and Ba/F3 LMNA-NTRK1-V573M are NTRK1 gene mutant cells.
# as §1, §3, §4
# T1 sequence (P07333 20-972): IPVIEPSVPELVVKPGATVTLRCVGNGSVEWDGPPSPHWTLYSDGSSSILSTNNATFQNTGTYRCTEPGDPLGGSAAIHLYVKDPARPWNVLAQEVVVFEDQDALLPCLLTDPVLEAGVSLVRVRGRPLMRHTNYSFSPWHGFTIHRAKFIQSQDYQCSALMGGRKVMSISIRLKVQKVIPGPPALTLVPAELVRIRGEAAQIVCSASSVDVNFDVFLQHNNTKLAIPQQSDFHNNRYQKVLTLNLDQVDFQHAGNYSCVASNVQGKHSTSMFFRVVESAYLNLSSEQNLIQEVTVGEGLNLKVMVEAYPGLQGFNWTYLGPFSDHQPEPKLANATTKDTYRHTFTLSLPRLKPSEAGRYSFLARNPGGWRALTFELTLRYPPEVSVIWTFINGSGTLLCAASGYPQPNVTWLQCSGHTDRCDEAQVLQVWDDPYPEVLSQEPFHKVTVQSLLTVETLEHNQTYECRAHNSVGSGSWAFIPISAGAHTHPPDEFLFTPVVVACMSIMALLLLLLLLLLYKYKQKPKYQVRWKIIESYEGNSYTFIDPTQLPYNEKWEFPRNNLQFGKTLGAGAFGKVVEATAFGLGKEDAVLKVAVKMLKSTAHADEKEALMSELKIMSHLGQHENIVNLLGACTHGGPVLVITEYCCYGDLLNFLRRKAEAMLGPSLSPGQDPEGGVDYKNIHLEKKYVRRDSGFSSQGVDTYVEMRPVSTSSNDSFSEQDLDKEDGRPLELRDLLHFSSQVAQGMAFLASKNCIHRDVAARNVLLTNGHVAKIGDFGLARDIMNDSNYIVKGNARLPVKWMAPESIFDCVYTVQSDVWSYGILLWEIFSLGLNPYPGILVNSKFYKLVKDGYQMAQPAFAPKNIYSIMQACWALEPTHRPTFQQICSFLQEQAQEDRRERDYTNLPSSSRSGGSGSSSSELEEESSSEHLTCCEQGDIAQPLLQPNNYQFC
Compound,IC50 [1] [nM],GI50 (Ba/F3 ETV6-NTRK2 cells) [nM],IC50 (TrkA (h)) [nM],GI50 [2] [nM]
"COc1cc2nccc(Oc3ccc(NC(=O)c4nn(C(C)C)cc(-c5ccc(F)cc5)c4=O)nc3)c2cc1OC [Compound 15, N-(5-((6,7-dimethoxyquinolin-4-yl)oxy)pyridin-2-yl)-5-(4-fluorophenyl)-1-isopropyl-4-oxo-1,4-dihydropyridazine-3-carboxamide]",100 to 300,16.4,6,0.51
COc1cc2nccc(Oc3ccc(NC(=O)c4nn(C5CC5)cc(-c5ccc(F)cc5)c4=O)nc3)c2cc1OC [Compound 31],30 to 100,–,3,1.4
COc1cc2nccc(Oc3cnc(NC(=O)c4nn(C5CC5)cc(-c5ccc(F)cc5)c4=O)nc3)c2cc1OC [Compound 33],–,–,13,6
"COc1cc2nccc(Oc3ncc(NC(=O)c4nn(C(C)C)cc(-c5ccc(F)cc5)c4=O)cn3)c2cc1OC [Compound 34, N-(2-((6,7-dimethoxyquinolin-4-yl)oxy)pyrimidine-5-yl)-5-para-fluorophenyl-1-isopropyl-4-oxo-1,4-dihydropyridazine-3-carboxamide]",–,109,5,2.7
COc1cc2nccc(Oc3ccc(NC(=O)c4nn(C5CC5)cc(-c5ccc(F)cc5)c4=O)cn3)c2cc1OC [Compound 36],–,–,2,–
"COc1cc2nccc(Oc3ncc(NC(=O)c4nn(C5CC5)cc(-c5ccc(F)cc5)c4=O)cn3)c2cc1OC [Compound 37, 1-cyclopropyl-N-(2-((6,7-dimethoxyquinolin-4-yl)oxy)pyrimidine-5-yl)-5-para-fluorophenyl-4-oxo-1,4-dihydropyridazine-3-carboxamide]",–,–,7,–
"COc1cc2nccc(Oc3ccc(NC(=O)c4cn(C(C)C)nc(-c5ccc(F)cc5)c4=O)cn3)c2cc1OC [Compound 38, N-(6-((6,7-dimethoxyquinolin-4-yl)oxy)pyridin-3-yl)-6-para-fluorophenyl-2-isopropyl-5-oxo-2,5-dihydropyridazine-4-carboxamide]",–,–,11,7.5
"COc1cc2nccc(Oc3cnc(NC(=O)c4cn(C(C)C)nc(-c5ccc(F)cc5)c4=O)nc3)c2cc1OC [Compound 39, N-(5-((6,7-dimethoxyquinolin-4-yl)oxy)pyrimidine-2-yl)-6-(4-fluorophenyl)-2-isopropyl-5-oxo-2,5-dihydropyridazine-4-carboxamide]",–,–,18,5
"COc1cc2nccc(Oc3ncc(NC(=O)c4cn(C(C)C)nc(-c5ccc(F)cc5)c4=O)cn3)c2cc1OC [Compound 40, N-(2-((6,7-dimethoxyquinolin-4-yl)oxy)pyrimidine-5-yl)-6-(4-fluorophenyl)-2-isopropyl-5-oxo-2,5-dihydropyridazine-4-carboxamide]",–,–,7,9.1
"COc1cc2nccc(Oc3ccc(NC(=O)c4cn(C(C)C)nc(-c5ccc(F)cc5)c4=O)nc3)c2cc1OC [Compound 41, N-(5-((6,7-dimethoxyquinolin-4-yl)oxy)pyridin-2-yl)-6-(4-fluorophenyl)-2-isopropyl-5-oxo-2,5-dihydropyridazine-4-carboxamide]",–,–,5,–
